Where “and” joins values, the source holds several entries; their conditions need not be identical. Equal values may be shown once.
Assays:
APP/PS1 mice [1] = assay: flow cytometry of blood immune cells (Supplementary Fig 5e-i); assay type: in vivo, mouse; parameters: CD11b+ CD115+ Ly6Chi / CD11b+ CD115+ Ly6Clow / CD115low Ly6Chi Ly6Ghi / CD4+ T cell / B220+ B cell: unit not given here
Procedure: (§1) Transgenic mouse lines over-expressing the hAPP695swe (APP) and presenilin-1M146V (PS1) mutations were originated from GlaxoSmithKline (Harlow, UK)[32] and maintained as described previously. We purchased 5×FAD mice from Jackson Labs (Stock number. 34840-JAX). Because APP/PS1 and 5xFAD mice show sex differences in disease progression, we used only male mice. To examine possible therapeutic effect of N-AS and aspirin in APP/PS1 mice, the N-AS (30 mg kg^−1, Sigma-Aldrich, 01912) was injected daily s.c. for 8 weeks to 7-months-old APP/PS1 mice until the age of 9 months, and aspirin (2 mg kg^−1, Sigma-Aldrich, A5376)[33] was administrated orally to 7-months-old APP/PS1 mice for 8 weeks. Also, to confirm possible therapeutic efficacy of N-AS in 5×FAD, the N-AS (30 mg kg^−1, Sigma-Aldrich, 01912) was injected daily s.c. for 4 weeks to 3-months-old 5×FAD mice until the age of 4 months. Block randomization method was used to allocate the animals to experimental groups. To eliminate the bias, we were blinded in experimental progress such as data collection and data analysis. Mice were housed at temperature of 22 °C and a 12 h day/12 h night cycle with free access to tap water and food pellets. All protocols were approved by the Kyungpook National University Institutional Animal Care and Use Committee.
Brain microglia polarity and immune cells in brain and blood were analyzed by flow cytometry. Cells from WT, APP/PS1, and APP/PS1 treated with N-AS mice brain were prepared as previously described with minor modifications. Brains of WT, APP/PS1, and APP/PS1 treated with N-AS mice were dissected and immediately transferred in ice-cold HBSS (Gibco). After gentle mincing, the brain was digested in a HBSS solution containing collagenase P (0.2 mg ml^−1, Roche), dispase II (0.8 mg ml^−1, Roche), DNase I (0.01 mg ml^−1, Roche), and collagenase A (0.3 mg ml^−1, Roche) at 37 °C for 1 h under gentle rocking. Digestion was stopped by adding FBS (Gibco) on ice. The supernatants were centrifuged at 250×g for 10 min at 4 °C. The pellet was resuspended in 25% BSA (Gibco)/PBS (Gibco) for myelin removal. Following a centrifugation step at 3000×g for 30 min at 4 °C, the myelin containing supernatant was discarded. The cell pellets were then resuspended in 1 ml of HBSS and filtered through a 40 μm mesh, followed by a washing step in HBSS. The cell pellets were resuspended in 1 ml of red blood cell lysis buffer (BD Biosciences) and incubated at RT for 10 min for lysis of erythrocytes. Subsequently, 2 ml of MACs buffer (Miltenyl Biotec, 130-091-222) was added and centrifuged at 250×g for 10 min at 4 °C. Cells from WT, APP/PS1, and APP/PS1 treated with N-AS mice blood were prepared as previously described with minor modifications. Blood was collected in sodium-heparin tube (BD, 367871) by cardiac puncture. Red blood cells were lysed once at 4 °C for 10 min in 0.15 M NH4Cl ([…] Technologies), washed once with PBS (Gibco), and counted using cell counter (Logos biosystems). […]

APP/PS1 mice [2] = assay: immunofluorescence of 6E10, Aβ40 and Aβ42 (Fig 6b-d); assay type: in vivo, mouse; conditions: for 6E10 immunofluorescence quantification (Figure 6b) / Aβ40 immunofluorescence quantification (Figure 6c) / Aβ42 immunofluorescence quantification (Figure 6d): APP/PS1 + N-AS, individual animals
Procedure: Thioflavin S (Sigma-Aldrich) staining was carried out according to previously described procedures. We used 6E10 (mouse, 1:100, Signet, SIG39300), anti-20G10 (mouse, 1:1000, provided by D. R. Howlett, GlaxoSmithKline, Harlow, Essex, UK) for Aβ42, anti-G30 (rabbit, 1:1000, provided by D. R. Howlett) for Aβ40, SMA (mouse, 1:400, Sigma-Aldrich, A2547), AT8 (mouse, 1:500, Thermo Fisher Scientific, MN1020), Caspase-3 (mouse, 1:200, Novus Biologicals, NB100-56708), ac-S565 (rabbit, 1:100), COX2 (mouse, 1:250, Thermo Fisher Scientific, 35-8200), Iba1 (rabbit, 1:500, Wako, 019-19941 and goat, Abcam, ab5076), NeuN (mouse, 1:500, Millipore, MAB177), GFAP (rabbit, 1:500, Dako, N1506 and chicken, 1:500, Abcam, ab4674), and Lamp1 (mouse, 1:200, Abcam, ab24170). The sections were analyzed with a laser-scanning confocal microscope (FV3000; Olympus) or with a BX51 microscope (Olympus). MetaMorph software (Molecular Devices) was used to quantification. Three-dimensional reconstruction of microglia was recorded and analyzed using IMARIS software (Bitplane)[11]. For the analysis of age-dependent microglial COX2^+ CX3CR1^+ cells in WT and APP/PS1 mice, COX2 (rabbit, 1:100, Abcam, ab15191) and CX3CR1 (mouse, 1:100, BioLegend, 149008) antibody were used and the images were acquired on Alexa 488 and APC Channel with performed using Operetta CLS and Analysis Software 4.5 (Perkin-Elmer).
as §1

For `CCCCCCCCCCCCC/C=C/[C@@H](O)[C@H](CO)NC(C)=O` [N-AS, N-((2S,3R,E)-1,3-Dihydroxyoctadec-4-en-2-yl)acetamide], the “anti-inflammatory monocytes in blood” value (APP/PS1 mice [1]; N-AS vs vehicle APP/PS1) was “increased anti-inflammatory monocytes”, the “macrophages and pro-inflammatory monocytes in blood” value (APP/PS1 mice [1]; N-AS vs vehicle APP/PS1) was “decreased macrophages and pro-inflammatory monocytes” and the neutrophils in blood (APP/PS1 mice [1]; N-AS vs vehicle APP/PS1) was “neutrophils showed no differences between the groups”. For the same compound, the “Lin- CD11b+ F4/80hi” value (APP/PS1 mice [1]; blood, APP/PS1 + N-AS, sFig 5e) was 0.31 and 0.35 and 0.29 and 0.33 and 0.3, the “CD11b+ CD115+ Ly6Chi” value (APP/PS1 mice [1]; blood, APP/PS1 + N-AS, sFig 5f) was 0.3325 and 0.21 and 0.4 and 0.265 and 0.235 and 0.305 and the “CD11b+ CD115+ Ly6Clow” value (APP/PS1 mice [1]; blood, APP/PS1 + N-AS, sFig 5f) was 0.32 and 0.295 and 0.285 and 0.3075. The “CD115low Ly6Chi Ly6Ghi” value (APP/PS1 mice [1]; blood, APP/PS1 + N-AS, sFig 5g) was 3.9 and 4.5 and 3.15 and 4.65 and 3 and 4.1, the “B220+ B cell” value (APP/PS1 mice [1]; blood, APP/PS1 + N-AS, sFig 5i) was 5.915 and 5.6 and 6.23 and 6.0725 and the “CD4+ T cell” value (APP/PS1 mice [1]; blood, APP/PS1 + N-AS, sFig 5h) was 3.42 and 3.21 and 3.63 and 3.525. For the same compound, the “6E10 immunofluorescence quantification (Figure 6b)” value (APP/PS1 mice [2]; Cortex) was 0.0608 and 0.09453 and 0.05939 and 0.02037 and 0.005591 and 0.04313 and 0.04886 and 0.06655, the “Aβ40 immunofluorescence quantification (Figure 6c)” value (APP/PS1 mice [2]; Cortex) was 0.06419 and 0.04296 and 0.0589 and 0.2298 and 0.117 and 0.122 and 0.04359 and 0.05854 and the “Aβ42 immunofluorescence quantification (Figure 6d)” value (APP/PS1 mice [2]; Cortex) was 0.1554 and 0.215 and 0.1788 and 0.1001 and 0.1191 and 0.09457 and 0.1824 and 0.177. For the same compound, the “6E10 immunofluorescence quantification (Figure 6b)” value (APP/PS1 mice [2]; Hippocampus) was 0.04847 and 0.07321 and 0.02799 and 0.04609 and 0.00742 and 0.009448 and 0.05438 and 0.09253, the “Aβ40 immunofluorescence quantification (Figure 6c)” value (APP/PS1 mice [2]; Hippocampus) was 0.07041 and 0.04924 and 0.02685 and 0.04786 and 0.1308 and 0.07762 and 0.09677 and 0.1893 and 0.1045 and the “Aβ42 immunofluorescence quantification (Figure 6d)” value (APP/PS1 mice [2]; Hippocampus) was 0.2679 and 0.3316 and 0.148 and 0.1454 and 0.2815 and 0.3706 and 0.09586 and 0.279 and 0.395. The “Aβ levels by immunofluorescence of 6E10, Aβ40, Aβ42” value (APP/PS1 mice [2]; N-AS vs vehicle APP/PS1) was “significantly lower Aβ levels”.
